Test results: US20230295166A1, “ATR INHIBITORS AND USES THEREOF” (ANTENGENE DISCOVERY LIMITED, priority 2020, published 2023)

Target: ATR kinase (Homo sapiens (Human), UniProt Q13535)
Assay: ATR inhibition assay (mobility shift assay, phosphorylation of FAM-RAD17)
Type: biochemical
Conditions: ATR kinase (Eurofins), substrate FAM-RAD17, mobility shift
Method: Assay 1: ATR Inhibition Assay
Detection of ATR kinase activity utilized the Mobility shift assay to measure the phosphorylation of the substrate protein FAM-RAD17 (GL, Cat. No. 514318, Lot. No. P19042-MJ524315). The assay was developed and conducted at Chempartner. All the test compounds were dissolved in 100% DMSO at concentration of 20 mM, then prepare compounds and conducted the assay as follows: • 1) Transfer 80 μl 20 mM compound to 40 μl of 100% DMSO in a 96-well plate. • 2) Serially dilute the compound by transferring 20 μl to 60 μl of 100% DMSO in the next well and so forth for a total of 10 concentrations. • 3) Add 100 μl of 100% DMSO to two empty wells for no compound control and no enzyme control in the same 96-well plate. Mark the plate as source plate. • 4) Transfer 40 μl of compound from source plate to a new 384-well plate as the intermediate plate. • 5) Transfer 60 nl compounds to assay plate by Echo. • 6) Add ATR kinase (Eurofins, Cat. No. 14-953, Lot. No. D14 JP007N) into Kinase base buffer (50 mM HEPES, pH 7.5; 0.0015% Brij-35; 0.01% Triton) to prepare 2× enzyme solution, then add 10 μl of 2× enzyme solution to each well of the 384-well assay plate, incubate at room temperature for 10 min. • 7) Add FAM-RAD17 and ATP (Sigma, Cat. No. A7699-1G, CAS No. 987-65-5) in the kinase base buffer to prepare 2×peptide solution, then add 10 μl to the assay plate. • 8) Incubate at 28° C. for specified period of time. Add 40 μl of stop buffer (100 mM HEPES, pH 7.5; 0.015% Brij-35; 0.2% Coating Reagent #3; 50 mM EDTA) to stop reaction. • 9) Collect data on Caliper. Convert conversion values to inhibition values.
Percent inhibition=(max−conversion)/(max−min)*100 wherein “max” stands for DMSO control; “min” stands for low control.
Fit the data in XLFit excel add-in version 5.4.0.8 to obtain IC50 values. Equation used is:
Y=Bottom+(Top−Bottom)/(1+(IC50/X)^HillSlope) wherein X means concentration in a format not transformed to logarithms.

Sequence of ATR kinase (Q13535 whole entry): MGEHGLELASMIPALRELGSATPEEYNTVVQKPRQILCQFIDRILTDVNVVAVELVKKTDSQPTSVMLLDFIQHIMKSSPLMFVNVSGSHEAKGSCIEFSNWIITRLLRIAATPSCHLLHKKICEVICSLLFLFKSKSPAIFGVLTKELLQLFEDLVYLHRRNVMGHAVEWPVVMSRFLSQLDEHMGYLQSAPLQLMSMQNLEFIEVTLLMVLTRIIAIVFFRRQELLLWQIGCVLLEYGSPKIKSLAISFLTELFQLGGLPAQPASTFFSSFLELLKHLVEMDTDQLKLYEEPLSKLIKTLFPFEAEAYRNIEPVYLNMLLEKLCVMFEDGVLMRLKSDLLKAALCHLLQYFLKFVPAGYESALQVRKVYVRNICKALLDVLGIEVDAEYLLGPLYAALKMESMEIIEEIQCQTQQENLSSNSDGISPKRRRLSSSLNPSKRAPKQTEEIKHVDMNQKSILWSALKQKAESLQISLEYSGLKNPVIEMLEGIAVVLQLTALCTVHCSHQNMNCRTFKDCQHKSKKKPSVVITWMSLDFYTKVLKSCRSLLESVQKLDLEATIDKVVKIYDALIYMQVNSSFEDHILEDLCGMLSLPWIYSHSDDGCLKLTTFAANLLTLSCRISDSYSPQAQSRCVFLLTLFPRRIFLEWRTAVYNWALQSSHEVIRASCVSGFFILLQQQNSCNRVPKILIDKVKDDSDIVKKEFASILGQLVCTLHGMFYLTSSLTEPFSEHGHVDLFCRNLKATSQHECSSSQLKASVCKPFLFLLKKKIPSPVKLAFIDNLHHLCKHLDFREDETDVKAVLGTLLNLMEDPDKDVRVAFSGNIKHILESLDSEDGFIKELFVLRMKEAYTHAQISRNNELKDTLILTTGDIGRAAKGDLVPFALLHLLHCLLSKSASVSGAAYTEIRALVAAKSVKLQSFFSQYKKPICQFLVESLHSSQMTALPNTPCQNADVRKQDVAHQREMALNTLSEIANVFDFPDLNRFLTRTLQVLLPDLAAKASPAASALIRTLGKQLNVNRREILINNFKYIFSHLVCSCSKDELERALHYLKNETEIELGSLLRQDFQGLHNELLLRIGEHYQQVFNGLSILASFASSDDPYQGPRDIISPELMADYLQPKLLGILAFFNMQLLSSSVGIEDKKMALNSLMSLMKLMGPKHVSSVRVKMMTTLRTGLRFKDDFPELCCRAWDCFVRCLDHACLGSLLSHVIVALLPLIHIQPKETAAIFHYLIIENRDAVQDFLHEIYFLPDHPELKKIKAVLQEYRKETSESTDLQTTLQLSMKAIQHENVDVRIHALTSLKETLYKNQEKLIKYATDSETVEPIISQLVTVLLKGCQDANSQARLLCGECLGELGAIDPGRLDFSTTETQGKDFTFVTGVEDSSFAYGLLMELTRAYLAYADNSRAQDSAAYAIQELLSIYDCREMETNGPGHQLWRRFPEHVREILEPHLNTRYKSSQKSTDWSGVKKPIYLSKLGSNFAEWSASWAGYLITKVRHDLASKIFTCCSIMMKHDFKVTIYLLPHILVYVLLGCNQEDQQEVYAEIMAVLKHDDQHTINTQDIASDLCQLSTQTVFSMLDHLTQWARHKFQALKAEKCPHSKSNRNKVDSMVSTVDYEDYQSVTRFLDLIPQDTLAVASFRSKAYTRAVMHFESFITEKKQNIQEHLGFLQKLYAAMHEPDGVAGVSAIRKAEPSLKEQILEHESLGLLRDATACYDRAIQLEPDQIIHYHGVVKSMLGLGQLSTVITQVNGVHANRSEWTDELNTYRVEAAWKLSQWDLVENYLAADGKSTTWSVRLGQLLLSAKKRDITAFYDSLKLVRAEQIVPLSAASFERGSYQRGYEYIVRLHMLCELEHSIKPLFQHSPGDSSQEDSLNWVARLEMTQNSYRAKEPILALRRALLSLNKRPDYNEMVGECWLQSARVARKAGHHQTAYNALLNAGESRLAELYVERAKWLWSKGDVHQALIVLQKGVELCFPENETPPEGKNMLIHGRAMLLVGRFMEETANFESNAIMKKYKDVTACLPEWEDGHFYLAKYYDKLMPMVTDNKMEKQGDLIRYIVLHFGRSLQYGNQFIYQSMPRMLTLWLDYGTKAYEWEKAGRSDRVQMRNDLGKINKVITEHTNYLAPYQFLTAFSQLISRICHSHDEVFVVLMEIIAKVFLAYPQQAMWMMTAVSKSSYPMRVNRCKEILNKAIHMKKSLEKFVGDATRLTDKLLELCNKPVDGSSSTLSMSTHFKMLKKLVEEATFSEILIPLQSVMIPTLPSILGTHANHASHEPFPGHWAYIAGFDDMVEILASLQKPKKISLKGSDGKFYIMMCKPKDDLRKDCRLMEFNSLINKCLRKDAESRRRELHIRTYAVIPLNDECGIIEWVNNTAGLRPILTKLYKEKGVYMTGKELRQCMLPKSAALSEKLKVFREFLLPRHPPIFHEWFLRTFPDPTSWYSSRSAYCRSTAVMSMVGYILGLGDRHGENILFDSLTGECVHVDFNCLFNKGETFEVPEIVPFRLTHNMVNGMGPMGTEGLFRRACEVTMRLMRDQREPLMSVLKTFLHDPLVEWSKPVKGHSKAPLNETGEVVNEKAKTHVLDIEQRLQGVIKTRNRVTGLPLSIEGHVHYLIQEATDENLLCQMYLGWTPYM
Sequence of ATR kinase (Q8WXE1 whole entry partner): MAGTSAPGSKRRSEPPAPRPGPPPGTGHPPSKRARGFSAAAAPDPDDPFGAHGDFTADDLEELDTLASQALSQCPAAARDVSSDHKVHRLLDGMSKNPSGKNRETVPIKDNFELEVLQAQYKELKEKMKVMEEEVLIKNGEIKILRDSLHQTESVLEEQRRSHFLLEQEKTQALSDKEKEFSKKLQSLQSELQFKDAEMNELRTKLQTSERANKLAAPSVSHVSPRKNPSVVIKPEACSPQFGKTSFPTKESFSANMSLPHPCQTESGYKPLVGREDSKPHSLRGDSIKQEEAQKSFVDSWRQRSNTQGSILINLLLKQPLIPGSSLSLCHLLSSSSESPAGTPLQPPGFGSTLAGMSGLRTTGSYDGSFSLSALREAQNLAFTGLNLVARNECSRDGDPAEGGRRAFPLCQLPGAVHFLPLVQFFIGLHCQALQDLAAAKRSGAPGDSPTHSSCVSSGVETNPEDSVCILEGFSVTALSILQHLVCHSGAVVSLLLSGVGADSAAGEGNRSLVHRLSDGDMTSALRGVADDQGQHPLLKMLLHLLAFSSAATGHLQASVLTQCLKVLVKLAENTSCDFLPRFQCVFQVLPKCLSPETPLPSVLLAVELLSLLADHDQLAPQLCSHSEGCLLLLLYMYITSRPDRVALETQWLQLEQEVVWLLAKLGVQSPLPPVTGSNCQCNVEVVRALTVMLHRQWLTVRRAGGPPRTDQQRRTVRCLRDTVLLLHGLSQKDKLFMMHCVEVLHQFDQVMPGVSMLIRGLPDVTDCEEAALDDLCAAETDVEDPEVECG

IC50 [nM] | SMILES
> 500 | C[C@@H]1COCCN1c1cc(-c2ccnn2C)n2ncc(-c3cn[nH]c3)c2n1 [Example 2, (R)-3-methyl-4-(7-(1-methyl-1H-pyrazol-5-yl)-3-(1H-pyrazol-4-yl)pyrazolo [1,5-a]pyrimidin-5-yl)morpholine]
100 to 500 | C[C@@H]1COCCN1c1cc(-c2ccnn2C)n2ncc(-c3cccnc3)c2n1 [Example 3, (R)-3-methyl-4-(7-(1-methyl-1H-pyrazol-5-yl)-3-(pyridin-3-yl)pyrazolo[1,5-a]pyrimidin-5-yl)morpholine]
< 100 | C[C@@H]1COCCN1c1cc(-c2ccnn2C)n2ncc(-c3ccc[nH]3)c2n1 [Example 4, (R)-3-methyl-4-(7-(1-methyl-1H-pyrazol-5-yl)-3-(1H-pyrrol-2-yl)pyrazolo[1,5-a]pyrimidin-5-yl)morpholine]
< 100 | C[C@@H]1COCCN1c1cc(C2([S@@](C)(=N)=O)CC2)n2ncc(-c3ccn[nH]3)c2n1 [Example 7b, (S)-imino(methyl)(1-(5-((R)-3-methylmorpholino)-3-(1H-pyrazol-5-yl)pyrazolo[1,5-a]pyrimidin-7-yl)cyclopropyl)-λ6-sulfanone]
< 100 | C[C@@H]1COCCN1c1cc(C2(S(C)(=O)=O)CC2)n2ncc(-c3ccc[nH]3)c2n1 [Example 8, (R)-3-methyl-4-(7-(1-(methylsulfonyl)cyclopropyl)-3-(1H-pyrrol-2-yl)pyrazolo[1,5-a]pyrimidin-5-yl)morpholine]

SMILES | IC50 [nM]
C[C@@H]1COCCN1c1cc(C2([S@](C)(=N)=O)CC2)n2ncc(-c3ccn[nH]3)c2n1 [Example 7a, (R)-imino(methyl)(1-(5-((R)-3-methylmorpholino)-3-(1H-pyrazol-5-yl)pyrazolo[1,5-a]pyrimidin-7-yl)cyclopropyl)-λ6-sulfanone] | < 100

System: LoVo (CCL-229) cells
Assay: Tumor cell anti-proliferation assay (CTG assay)
Type: cell-based
Conditions: LoVo human colorectal cancer cells, 96 h, CellTiter-Glo
Method: Assay 2: Tumor Cell Anti-proliferation Assay (CTG Assay)
Human colorectal cancer cells HT-29 (HTB-38) and LoVo (CCL-229) were selected for the CTG assay, the two cell lines were originally obtained from the American Type Culture Collection (ATCC). FBS and appropriate additives were added into base medium to prepare complete medium, then the cell layer was briefly rinsed with 0.25% (w/v) Trypsin-0.038% (w/v) EDTA solution to remove all traces of serum that contains trypsin inhibitor. After that, appropriate volume of Trypsin-EDTA solution was added to flask and cells under an inverted microscope were observed until cell layer was dispersed. At last, appropriate volume of complete growth medium was added and cells were aspirated by gently pipetting. Numbers were collected and counted with Vi-cell XR and cell density was adjusted, cells were seeded into 96-well opaque-walled clear bottom tissue-culture treated plates in the CO2 incubator for 20-24 hours. All the test compounds were at 10 mM in DMSO. Compounds were then added to the cell media in 3-fold serial dilutions, the final DMSO concentration was 0.5%. Plates were incubated for 96 h at 5% CO2, 37° C. Before the measurement, the appropriate volume of CellTiter-Glo Buffer was transferred into the amber bottle containing CellTiter-Glo substrate to reconstitute the lyophilized enzyme/substrate mixture, mixed gently, thereby forming the CellTiter-Glo Reagent (Promega Cat. No. G7573). The plate and its contents were equilibrated to room temperature for approximately 30 minutes, then 100 μL of CellTiter-Glo Reagent was added to the assay plate, the contents were mixed for 2 minutes on an orbital shaker to induce cell lysis, incubated at room temperature for 10 minutes to stabilize luminescent signal. At last the clear bottom was pasted with white back seal and luminescence was recorded with Enspire. IC50 and GI50 values were calculated with XLFit curve fitting software using 4 Parameter Logistic Model Y=Bottom+(Top−Bottom)/(1+(IC50/X)^HillSlope).

SMILES | IC50 [nM]
Cc1cc(-c2nsc3c(C4(O)CCCCC4)cc(N4CCOC[C@H]4C)nc23)[nH]n1 [Example 86, (R)-1-(3-(3-methyl-1H-pyrazol-5-yl)-5-(3-methylmorpholino)isothiazolo[4,5-b]pyridin-7-yl)cyclohexan-1-ol] | 9
Cc1cc(-c2nsc3c(C4(C(N)=O)CCCCC4)cc(N4CCOC[C@H]4C)nc23)[nH]n1 [Example 88, (R)-1-(3-(3-methyl-1H-pyrazol-5-yl)-5-(3-methylmorpholino)isothiazolo[4,5-b]pyridin-7-yl)cyclohexane-1-carboxamide] | 1
C[C@@H]1COCCN1c1cc(C2(C(N)=O)CCCC2)c2snc(-c3ccn[nH]3)c2n1 [Example 90, 1-{5-[(3R)-3-methylmorpholin-4-yl]-3-(1H-pyrazol-5-yl)-[1,2]thiazolo[4,5-b]pyridin-7-yl}cyclopentane-1-carboxamide] | 5
COC(=O)C1(c2cc(N3CCOC[C@H]3C)nc3c(-c4ccn[nH]4)nsc23)CCCC1 [Example 92] | 94
Cc1cc(-c2nsc3c(C4(S(C)(=N)=O)CC4)cc(N4CCOC[C@H]4C)nc23)[nH]n1 (stereo partly drawn) [Example 94, imino(methyl)(1-(3-(3-methyl-1H-pyrazol-5-yl)-5-((R)-3-methylmorpholino)isothiazolo[4,5-b]pyridin-7-yl)cyclopropyl)-16-sulfanone] | 12
Cc1cc(-c2nsc3c(C(C)(C)CO)cc(N4CCOC[C@H]4C)nc23)[nH]n1 [Example 97, (R)-2-methyl-2-(3-(3-methyl-1H-pyrazol-5-yl)-5-(3-methylmorpholino)isothiazolo[4,5-b]pyridin-7-yl)propan-1-ol] | 10
Cc1cc(-c2nsc3c(C4(CO)CC4)cc(N4CCOC[C@H]4C)nc23)[nH]n1 [Example 98, (R)-(1-(3-(3-methyl-1H-pyrazol-5-yl)-5-(3-methylmorpholino)isothiazolo[4,5-b]pyridin-7-yl)cyclopropyl)methanol] | 14
Cc1cc(-c2nsc3c(C4(CO)CCOCC4)cc(N4CCOC[C@H]4C)nc23)[nH]n1 [Example 105, (R)-(4-(3-(3-methyl-1H-pyrazol-5-yl)-5-(3-methylmorpholino)isothiazolo[4,5-b]pyridin-7-yl)tetrahydro-2H-pyran-4-yl)methanol] | 9
Cc1cc(-c2nsc3c(C4(O)CCCC4)cc(N4CCOC[C@H]4C)nc23)[nH]n1 [Example 106, (R)-1-(3-(3-methyl-1H-pyrazol-5-yl)-5-(3-methylmorpholino)isothiazolo[4,5-b]pyridin-7-yl)cyclopentan-1-ol] | 46
Cc1cc(-c2nsc3c(P(C)(C)=O)cc(N4CCOC[C@H]4C)nc23)n(C2CCCCO2)n1 (stereo partly drawn) [Example 108, dimethyl(3-(3-methyl-1-(tetrahydro-2H-pyran-2-yl)-1H-pyrazol-5-yl)-5-((R)-3-methylmorpholino)isothiazolo[4,5-b]pyridin-7-yl)phosphine oxide] | 35

Continued, values first:

IC50 [nM] | SMILES
2 | C[C@@H]1COCCN1c1cc(C2(O)CCCCC2)c2snc(-c3ccn[nH]3)c2n1 [Example 91, (R)-1-(5-(3-methylmorpholino)-3-(1H-pyrazol-5-yl)isothiazolo[4,5-b]pyridin-7-yl)cyclohexan-1-ol]
36 | Cc1cc(-c2nsc3c(-c4ccccc4S(C)(=O)=O)cc(N4CCOC[C@H]4C)nc23)[nH]n1 [Example 95, (3R)-4-[7-(2-methanesulfonylphenyl)-3-(3-methyl-1H-pyrazol-5-yl)-[1,2]thiazolo[4,5-b]pyridin-5-yl]-3-methylmorpholine]
32.7 | Cc1cc(-c2nsc3c(-c4cccnc4C(F)(F)F)cc(N4CCOC[C@H]4C)nc23)[nH]n1 [Example 96, (3R)-3-methyl-4-[3-(3-methyl-1H-pyrazol-5-yl)-7-[2-(trifluoromethyl)pyridin-3-yl]-[1,2]thiazolo[4,5-b]pyridin-5-yl]morpholine]
16 | C[C@@H]1COCCN1c1cc(C(C)(C)CO)c2snc(-c3ccn[nH]3)c2n1 [Example 100, (R)-2-methyl-2-(5-(3-methylmorpholino)-3-(1H-pyrazol-5-yl)isothiazolo[4,5-b]pyridin-7-yl)propan-1-ol]
15.5 | C[C@@H]1COCCN1c1cc(-c2cccnc2C(F)(F)F)c2snc(-c3ccn[nH]3)c2n1 [Example 101, (3R)-3-methyl-4-[3-(1H-pyrazol-5-yl)-7-[2-(trifluoromethyl)pyridin-3-yl]-[1,2]thiazolo[4,5-b]pyridin-5-yl]morpholine]
26 | Cc1cc(-c2nsc3c(-c4ncnn4C)cc(N4CCOC[C@H]4C)nc23)[nH]n1 [Example 102, (R)-3-methyl-4-(7-(1-methyl-1H-1,2,4-triazol-5-yl)-3-(3-methyl-1H-pyrazol-5-yl)isothiazolo[4,5-b]pyridin-5-yl)morpholine]
154 | Cc1cc(-c2nsc3c(Cl)cc(N4CCOC[C@H]4C)nc23)[nH]n1 [Example 104, (R)-4-(7-chloro-3-(3-methyl-1H-pyrazol-5-yl)isothiazolo[4,5-b]pyridin-5-yl)-3-methylmorpholine]
15 | CCn1nncc1-c1cc(N2CCOC[C@H]2C)nc2c(-c3cc(C)n[nH]3)nsc12 [Example 107, (3R)-4-[7-(1-ethyl-1H-1,2,3-triazol-5-yl)-3-(3-methyl-1H-pyrazol-5-yl)-[1,2]thiazolo[4,5-b]pyridin-5-yl]-3-methylmorpholine]
